Results as given in patent US20230382925A1, “MODULATORS OF CYSTIC FIBROSIS TRANSMEMBRANE CONDUCTANCE REGULATOR” (VERTEX PHARMACEUTICALS INCORPORATED, priority 2020, published 2023).
Where two headings read alike, the source gives them in different places.

Target: CFTR (Homo sapiens, UniProt P13569)
Assay: Membrane Potential Dye, Enteroid Assay B
Type: cell-based
How it was run: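 Activity given as % of a triple-combination reference (1 μM and 3 μM correctors, 300 nM acute potentiator). Enteroids were preincubated 18-24 h with compound; chloride efflux then measured 15 min by methyl oxonol fluorescence after forskolin/IBMX/Compound III stimulation in chloride-free buffer containing CaCCinh-A01 and Chicago Sky Blue.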

[1] = Table 10, read-out: Ent. B EC50

Chain of CFTR (P13569 with tags, fused parts or gaps DEL508-508): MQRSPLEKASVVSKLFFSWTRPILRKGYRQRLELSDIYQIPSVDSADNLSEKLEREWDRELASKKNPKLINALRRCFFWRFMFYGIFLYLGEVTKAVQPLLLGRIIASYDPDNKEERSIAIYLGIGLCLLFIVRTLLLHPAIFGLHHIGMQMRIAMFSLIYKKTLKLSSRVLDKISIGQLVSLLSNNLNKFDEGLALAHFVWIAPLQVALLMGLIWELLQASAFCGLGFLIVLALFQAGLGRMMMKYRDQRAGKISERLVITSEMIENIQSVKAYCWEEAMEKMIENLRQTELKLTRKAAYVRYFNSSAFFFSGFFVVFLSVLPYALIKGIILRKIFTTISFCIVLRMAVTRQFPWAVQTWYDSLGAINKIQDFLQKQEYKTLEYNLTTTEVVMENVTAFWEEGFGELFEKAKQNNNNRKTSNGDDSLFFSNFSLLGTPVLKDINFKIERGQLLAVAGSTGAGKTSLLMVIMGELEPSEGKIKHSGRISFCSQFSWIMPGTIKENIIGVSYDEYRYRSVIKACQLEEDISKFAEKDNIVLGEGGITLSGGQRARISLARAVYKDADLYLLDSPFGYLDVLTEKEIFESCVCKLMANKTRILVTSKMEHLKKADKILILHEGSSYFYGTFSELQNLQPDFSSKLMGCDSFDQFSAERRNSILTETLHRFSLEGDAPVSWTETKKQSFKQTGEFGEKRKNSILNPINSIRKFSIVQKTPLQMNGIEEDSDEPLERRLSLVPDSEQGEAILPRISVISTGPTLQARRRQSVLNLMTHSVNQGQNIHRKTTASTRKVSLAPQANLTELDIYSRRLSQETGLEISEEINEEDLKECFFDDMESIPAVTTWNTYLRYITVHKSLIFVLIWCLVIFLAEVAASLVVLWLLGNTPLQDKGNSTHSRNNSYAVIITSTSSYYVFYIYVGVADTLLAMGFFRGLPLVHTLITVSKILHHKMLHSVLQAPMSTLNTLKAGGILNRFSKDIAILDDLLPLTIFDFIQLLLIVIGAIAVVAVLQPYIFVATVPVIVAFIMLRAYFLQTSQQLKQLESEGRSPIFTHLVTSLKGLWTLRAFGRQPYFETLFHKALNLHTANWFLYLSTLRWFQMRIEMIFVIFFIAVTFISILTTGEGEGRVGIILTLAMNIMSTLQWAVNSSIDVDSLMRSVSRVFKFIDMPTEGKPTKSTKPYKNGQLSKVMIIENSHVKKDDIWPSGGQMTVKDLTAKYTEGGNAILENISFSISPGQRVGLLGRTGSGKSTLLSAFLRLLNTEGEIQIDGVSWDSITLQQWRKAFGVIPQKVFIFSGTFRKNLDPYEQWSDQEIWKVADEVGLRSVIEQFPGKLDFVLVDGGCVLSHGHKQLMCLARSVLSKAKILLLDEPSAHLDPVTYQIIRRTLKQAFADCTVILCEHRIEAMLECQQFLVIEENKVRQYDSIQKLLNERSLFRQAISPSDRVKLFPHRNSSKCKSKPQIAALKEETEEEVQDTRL

| Structure (SMILES) | Ent. B Max Activity (%) (Table 9) | EC50 (Table 9, read-out: Ent. B EC50) [nM] | Ent. B Max Activity (%) (Table 10) | EC50 [1] [nM] | further results |
| --- | --- | --- | --- | --- | --- |
| Cc1cccc(C)c1-c1cc2nc(n1)NS(=O)(=O)c1cccc(c1)C(=O)N(C1CC(N[C@H]3CC[C@H](O)CC3)C1)[C@H](CC(C)C)CO2 (stereo in doubt) [Compound 372] | +++ (+++ is >60%) | < 1000 |  |  |  |
| COCCCN(C)[C@H]1C[C@@H](N2C(=O)c3cccc(c3)S(=O)(=O)Nc3nc(cc(-c4c(C)cccc4C)n3)OC[C@H]2CC(C)C)C1 (stereo in doubt) [Compound 379] | +++ (+++ is >60%) | < 1000 |  |  |  |
| Cc1cccc(C)c1-c1cc2nc(n1)NS(=O)(=O)c1cccc(c1)C(=O)N(C1CC3(C1)CC(O)(CC(C)C)C3)[C@H](CC(C)(C)C)CO2 (stereo in doubt) [Compound 404] |  |  | +++ (+++ is >60%) | < 1000 |  |
| Cc1cccc(C)c1-c1cc2nc(n1)NS(=O)(=O)c1cccc(c1)C(=O)N(C1CC3(C1)CC(O)(CC(C)C)C3)[C@H](CC(C)(C)C)CO2 (stereo in doubt) [Compound 405] |  |  | +++ (+++ is >60%) | < 1000 |  |
| Cc1cccc(C)c1-c1cc2nc(n1)NS(=O)(=O)c1cccc(n1)C(=O)N([C@H]1C[C@@H](C(C)(C)O)C1)[C@H](CC(C)(C)C)CO2 (stereo in doubt) [Compound 411] |  |  | +++ (+++ is >60%) | < 1000 |  |
| [H][C@]1(N2C(=O)c3cccc(c3)S(=O)(=O)Nc3nc(cc(-c4c(C)cccc4C)n3)OC[C@H]2CC(C)C)C[C@@]2(C[C@H](C(C)(C)O)C2)C1 (stereo in doubt) [Compound 412] |  |  | +++ (+++ is >60%) | < 1000 |  |
| [H][C@]1(N2C(=O)c3cccc(c3)S(=O)(=O)Nc3nc(cc(-c4c(C)cccc4C)n3)OC[C@H]2CC(C)C)C[C@@]2(C[C@H](C(C)(C)O)C2)C1 (stereo in doubt) [Compound 413] |  |  | +++ (+++ is >60%) | < 1000 |  |
| Cc1cccc(C)c1-c1cc2nc(n1)NS(=O)(=O)c1cccc(c1)C(=O)N(C1CC(NC(=O)C(C)C)C1)[C@H](CC(C)(C)C)CO2 (stereo in doubt) [Compound 445] | +++ (+++ is >60%) | < 1000 |  |  |  |
| CCC(=O)NC1CC(N2C(=O)c3cccc(c3)S(=O)(=O)Nc3nc(cc(-c4c(C)cccc4C)n3)OC[C@H]2CC(C)(C)C)C1 (stereo in doubt) [Compound 446] | +++ (+++ is >60%) | < 1000 |  |  |  |
| CCC(=O)NC1CC(N2C(=O)c3cccc(c3)S(=O)(=O)Nc3nc(cc(-c4c(C)cccc4C)n3)OC[C@H]2CC(C)(C)C)C1 (stereo in doubt) [Compound 447] | +++ (+++ is >60%) | < 1000 |  |  |  |
| CC(=O)NC1CC(N2C(=O)c3cccc(c3)S(=O)(=O)Nc3nc(cc(-c4c(C)cccc4C)n3)OC[C@H]2CC(C)(C)C)C1 (stereo in doubt) [Compound 449] | +++ (+++ is >60%) | < 1000 |  |  |  |
| Cc1cccc(C)c1-c1cc2nc(n1)NS(=O)(=O)c1cccc(c1)C(=O)N(C1CC(NC(=O)OC(C)C)C1)[C@H](CC(C)(C)C)CO2 (stereo in doubt) [Compound 450] | +++ (+++ is >60%) | < 1000 |  |  |  |
| Cc1cccc(C)c1-c1cc2nc(n1)NS(=O)(=O)c1cccc(c1)C(=O)N(C1CC(NC(=O)OC(C)C)C1)[C@H](CC(C)(C)C)CO2 (stereo in doubt) [Compound 451] | +++ (+++ is >60%) | < 1000 |  |  |  |
| COC1CC(N2C(=O)c3cccc(c3)S(=O)(=O)Nc3nc(cc(-c4c(C)cccc4C)n3)OC[C@H]2CC2(C(F)(F)F)CC2)C1 (stereo in doubt) [Compound 465] |  |  |  |  | Ent. B Max Activity (%): +++ (+++ is >60%); EC50 (read-out: Ent. B EC50): < 1000 nM |
| COC1CC(N2C(=O)c3cccc(c3)S(=O)(=O)Nc3nc(cc(-c4c(C)cccc4C)n3)OC[C@H]2CC2(C(F)(F)F)CC2)C1 (stereo in doubt) [Compound 466] |  |  |  |  | Ent. B Max Activity (%): +++ (+++ is >60%); EC50 (read-out: Ent. B EC50): < 1000 nM |
| Cc1cccc(CO)c1-c1cc2nc(n1)NS(=O)(=O)c1cccc(c1)C(=O)N(C1CC3(CC3)C1)[C@H](CC(C)C)CO2 [Compound 2, (11R)-6-[2-(Hydroxymethyl)-6-methyl-phenyl]-11-isobutyl-2,2-dioxo-12-spiro[2.3]hexan-5-yl-9-oxa-2λ^6-thia-3,5,12,19-tetrazatricyclo[12.3.1.14,8]nonadeca-1(18),4(19),5,7,14,16-hexaen-13-one] |  |  | ++ (++ is 30-60%) | < 1000 |  |
| Cc1cccc(C)c1-c1cc2nc(n1)NS(=O)(=O)c1cccc(c1)C(=O)N(C1CC3(CCN(C4COC4)CC3)C1)[C@H](CC(C)C)CO2 [Compound 24, (11R)-6-(2,6-Dimethylphenyl)-11-isobutyl-12-[7-(oxetan-3-yl)-7-azaspiro[3.5]nonan-2-yl]-2,2-dioxo-9-oxa-2λ^6-thia-3,5,12,19-tetrazatricyclo[12.3.1.14,8]nonadeca-1(18),4(19),5,7,14,16-hexaen-13-one] | +++ (+++ is >60%) | < 1000 |  |  |  |
| Cc1cccc(C)c1-c1cc2nc(n1)NS(=O)(=O)c1cccc(c1)C(=O)N(C1CC3(CCN(C(=O)CO)CC3)C1)[C@H](CC(C)C)CO2 [Compound 25, (11R)-6-(2,6-Dimethylphenyl)-12-[7-(2-hydroxyacetyl)-7-azaspiro[3.5]nonan-2-yl]-11-isobutyl-2,2-dioxo-9-oxa-2λ^6-thia-3,5,12,19-tetrazatricyclo[12.3.1.14,8]nonadeca-1(18),4(19),5,7,14,16-hexaen-13-one] | +++ (+++ is >60%) | < 1000 |  |  |  |
| Cc1cccc(C)c1-c1cc2nc(n1)NS(=O)(=O)c1cccc(c1)C(=O)N(C1CC3(CCN(C(=O)N(C)C)CC3)C1)[C@H](CC(C)C)CO2 [Compound 26, 2-[(11R)-6-(2,6-Dimethylphenyl)-11-isobutyl-2,2,13-trioxo-9-oxa-2λ^6-thia-3,5,12,19-tetrazatricyclo[12.3.1.14,8]nonadeca-1(18),4(19),5,7,14,16-hexaen-12-yl]-N,N-dimethyl-7-azaspiro[3.5]nonane-7-carboxamide] | +++ (+++ is >60%) | < 1000 |  |  |  |
| CO[C@H]1C[C@H]2CC(N3C(=O)c4cccc(c4)S(=O)(=O)Nc4nc(cc(-c5c(C)cccc5C)n4)OC[C@H]3CC(C)C)C[C@H]2C1 (stereo partly drawn) [Compound 37, (11R)-12-[(3aR,6aS)-5-Methoxy-1,2,3,3a,4,5,6,6a-octahydropentalen-2-yl]-6-(2,6-dimethylphenyl)-11-isobutyl-2,2-dioxo-9-oxa-2λ^6-thia-3,5,12,19-tetrazatricyclo[12.3.1.14,8]nonadeca-1(18),4(19),5,7,14,16-hexaen-13-one] | +++ (+++ is >60%) | < 1000 |  |  |  |
| Cc1cccc(C)c1-c1cc2nc(n1)NS(=O)(=O)c1cccc(c1)C(=O)N(C1CS(=O)(=O)C1)[C@H](CC(C)C)CO2 [Compound 41, (11R)-6-(2,6-Dimethylphenyl)-12-(1,1-dioxothietan-3-yl)-11-isobutyl-2,2-dioxo-9-oxa-2λ^6-thia-3,5,12,19-tetrazatricyclo[12.3.1.14,8]nonadeca-1(18),4(19),5,7,14,16-hexaen-13-one] |  |  | +++ (+++ is >60%) | < 1000 |  |
| Cc1cccc(C)c1-c1cc2nc(n1)NS(=O)(=O)c1cccc(c1)C(=O)N(C1CC(OC(=O)N(C)C)C1)[C@H](CC(C)C)CO2 (stereo partly drawn) [Compound 48, [3-[(11R)-6-(2,6-dimethylphenyl)-11-isobutyl-2,2,13-trioxo-9-oxa-2λ^6-thia-3,5,12,19-tetrazatricyclo[12.3.1.14,8]nonadeca-1(18),4(19),5,7,14,16-hexaen-12-yl]cyclobutyl] N,N-dimethylcarbamate] |  |  | ++ (++ is 30-60%) | < 1000 |  |
| Cc1cccc(C)c1-c1cc2nc(n1)NS(=O)(=O)c1cccc(c1)C(=O)N(C1CC(C)(OC(F)(F)F)C1)[C@H](CC(C)C)CO2 (stereo partly drawn) [Compound 49, (11R)-6-(2,6-dimethylphenyl)-11-isobutyl-12-[3-methyl-3-(trifluoromethoxy)cyclobutyl]-2,2-dioxo-9-oxa-2λ^6-thia-3,5,12,19-tetrazatricyclo[12.3.1.14,8]nonadeca-1(18),4(19),5,7,14,16-hexaen-13-one] |  |  | ++ (++ is 30-60%) | < 1000 |  |
| Cc1cccc(C)c1-c1cc2nc(n1)NS(=O)(=O)c1cccc(c1)C(=O)N(C1CC(C)(OC(F)(F)F)C1)[C@H](CC(C)C)CO2 (stereo partly drawn) [Compound 50, (11R)-6-(2,6-dimethylphenyl)-11-isobutyl-12-[3-methyl-3-(trifluoromethoxy)cyclobutyl]-2,2-dioxo-9-oxa-2λ^6-thia-3,5,12,19-tetrazatricyclo[12.3.1.14,8]nonadeca-1(18),4(19),5,7,14,16-hexaen-13-one] |  |  | ++ (++ is 30-60%) | < 1000 |  |
| Cc1cccc(C)c1-c1cc2nc(n1)NS(=O)(=O)c1cccc(c1)C(=O)N(C1CC3(CC3)C1)[C@H](CCC(C)(C)O)CO2 [Compound 52, (11R)-6-(2,6-Dimethylphenyl)-11-(3-hydroxy-3-methyl-butyl)-2,2-dioxo-12-spiro[2.3]hexan-5-yl-9-oxa-2λ^6-thia-3,5,12,19-tetrazatricyclo[12.3.1.14,8]nonadeca-1(18),4(19),5,7,14,16-hexaen-13-one] |  |  | ++ (++ is 30-60%) | < 1000 |  |
| COC1CN([C@H]2C[C@@H](N3C(=O)c4cccc(c4)S(=O)(=O)Nc4nc(cc(-c5c(C)cccc5C)n4)OC[C@H]3CC(C)C)C2)C1 [Compound 65, (11R)-6-(2,6-dimethylphenyl)-11-isobutyl-12-[3-(3-methoxyazetidin-1-yl)cyclobutyl]-2,2-dioxo-9-oxa-2λ^6-thia-3,5,12,19-tetrazatricyclo[12.3.1.14,8]nonadeca-1(18),4(19),5,7,14,16-hexaen-13-one] | +++ (+++ is >60%) | < 1000 |  |  |  |
